Experimental data from patent US8168860B2, “Compositions and methods for the modification of physiological responses in plants” (Rohm and Haas Company, priority 2007, dated 2012).
“And” between values parts separate entries of the source, which are not always exact repeats. Equal values may be shown once.

Experiments:
Assay type in all cases: in vivo
[1] = tested on: tomato seedlings p1002-18-3; test: Transient induction: tomato seedlings on 20 μM ACC, inducer removed after 2-14 days; conditions: for Hypocotyl (mm) / Root (mm) / Hypocotyl Percent (%) / Root Percent (%): p1002-18-3 tomato; for Hypocotyl (mm) / Root (mm): dark, 14 day old seedlings
Procedure: After 14 days growth in the dark, hypocotyls and roots were measured to assess ethylene insensitivity. Ethylene insensitive seedlings would be expected to have longer hypocotyls and roots. […] Thus, root and hypocotyl growth of the reversed seedlings should be intermediate between the sensitive and insensitive seedlings.

[2] = tested on: transformed tobacco plants; test: Triple response assay, shoot length of transformed tobacco shoots in dark with ethylene; conditions: for Shoot Length Avg (cm) / Shoot Length (cm): induced, 10 μM inducer, ethylene about 10 ppm, 18 days; for Shoot Length (cm): single shoots
Procedure: A triple response assay as described in Guzman and Ecker 1990 The Plant Cell, 2:513-523, modified as provided herein, was conducted to determine the effect of the modulation of ethylene sensitivity in the transformed tobacco plants of Example 2. From each transformed plant designated 185-1, 184-3, 185-8, 185-11, 187-7, 187-13, 187-17 and 187-21, two leaves from each plant were cut into small pieces. These pieces were plated onto MSS plates containing […] kanamycin, with or without 10 μM inducer, i.e., 3,5 Dimethyl-benzoic acid N-(1-ethyl-2,2-dimethyl-propyl)-N′-(3S-hydroxymethyl-5-methyl-2,3-dihydro-benzo[1,4]dioxine-6-carbonyl)hydrazide. MSS plates without antibiotic or inducer were used as controls.
These plated plant tissues were grown at 25° C. with light in growth chambers to induce shoots. Shoots were transferred into fresh plates for about two weeks for continued growth at 25° C. Each callus was then transferred to new culture dishes with or without inducer. Each callus with shoots starting to initiate was split into several plates with approximately equal amounts of callus per plate.
The plates were then separated into groups for the following treatment protocols which lasted for 18 days
Shoot length was measured, and the relative assessment of the efficacy of the transgenic plants prepared according to the Examples based on raw data for shoot length is reported in Table I for conditions (a) through (d) above. Typically, wild-type shoots exposed to ethylene in the dark display stunted growth. Ethylene insensitive plants under these conditions should show elongated growth. […] Shoots grown in the light produced uninterpretable data.

[3] = tested on: Wild-type, ein2-5 and p1002 Arabidopsis transformant seedlings; test: Triple response assay, Arabidopsis seedlings, root and hypocotyl growth with ethylene; conditions: for Roots (mm) Avg / Hypocotyls (mm) Avg: 11 days
Procedure: (§1) A triple response assay (Guzman and Ecker, 1990 cited above, modified as described below) was used to determine the modulation of ethylene sensitivity in the transformed Arabidopsis plants of Example 4. Arabidopsis seed was surface-sterilized and imbibed in 20 μM inducer in the dark for 4 days at 4° C. The seed was plated on 0.5× MS with 1% sucrose and 20 μM inducer and for mutant receptors treated with 10 ppm ethylene or 1 ppm ethylene for wild-type receptors and grown in the dark for 4-8 days at 21° C. The response to ethylene was scored on the last day.
Wild-type, ein2-5 (an ethylene insensitive mutant control), and p1002 Arabidopsis transformant seedlings were assayed for ethylene insensitivity using the triple response assay (Guzman and Ecker, 1990, cited above, with the following modifications) in which seeds were germinated on 0.5× MS media for 11 days in the dark in the presence of 10 ppm ethylene. Root and hypocotyl growth is inhibited by ethylene in ethylene sensitive but not in ethylene insensitive seedlings.

[4] = tested on: transformed tomato plants; test: Triple response assay, transformed tomato plants with ethylene; conditions: transgenic tomato with etr1-1 cassettes, 20 μM inducer, dark, 4-8 days
Procedure: as §1, with “1990,” for “1990”, “tomato plants. Tomato” for “Arabidopsis plants of Example 4. Arabidopsis”

[5] = 10 μM inducer, 2 days with inducer, 12 days without, 20 μM ACC
[6] = 10 μM inducer, 2 days with inducer, 12 days without, relative to 14 days with inducer
[7] = 10 μM inducer, 4 days with inducer, 10 days without, 20 μM ACC
[8] = 10 μM inducer, 4 days with inducer, 10 days without, relative to 14 days with inducer
[9] = 10 μM inducer, 6 days with inducer, 8 days without, 20 μM ACC
[10] = 10 μM inducer, 6 days with inducer, 8 days without, relative to 14 days with inducer
[11] = 10 μM inducer, 8 days with inducer, 6 days without, 20 μM ACC
[12] = 10 μM inducer, 8 days with inducer, 6 days without, relative to 14 days with inducer
[13] = 10 μM inducer, 14 days with inducer, 0 days without (reference)
[14] = 10 μM inducer, 14 days with inducer, 0 days without, 20 μM ACC
[15] = Arabidopsis, presence of inducer, 10 ppm ethylene
[16] = Ein2-5 seedlings, 20 μM inducer, 10 ppm ethylene, dark
[17] = WT seedlings, 20 μM inducer, 10 ppm ethylene, dark
[18] = p1002-1-4 seedlings, 20 μM inducer, 10 ppm ethylene, dark
[19] = p1002-3-4 seedlings, 20 μM inducer, 10 ppm ethylene, dark
[20] = p1002-11-3 seedlings, 20 μM inducer, 10 ppm ethylene, dark
[21] = p1002-23-2 seedlings, 20 μM inducer, 10 ppm ethylene, dark
[22] = p1002-24-4 seedlings, 20 μM inducer, 10 ppm ethylene, dark

CCC(N(NC(=O)c1ccc2c(c1C)O[C@@H](CO)CO2)C(=O)c1cc(C)cc(C)c1)C(C)(C)C (stereo partly drawn) [inducer, 3,5 Dimethyl-benzoic acid N-(1-ethyl-2,2-dimethyl-propyl)-N′-(3S-hydroxymethyl-5-methyl-2,3-dihydro-benzo[1,4]dioxine-6-carbonyl)hydrazide]
Hypocotyl (mm) [1, 5]: 16.9 ± 4.30 mm
Root (mm) [1, 5]: 26.2 ± 15.3 mm
Hypocotyl Percent (%) [1, 6]: 63.8%
Root Percent (%) [1, 6]: 69.9%
Hypocotyl (mm) [1, 7]: 19.5 ± 7.52 mm
Root (mm) [1, 7]: 28.7 ± 14.7 mm
Hypocotyl Percent (%) [1, 8]: 73.6%
Root Percent (%) [1, 8]: 76.5%
Hypocotyl (mm) [1, 9]: 26.8 ± 6.27 mm
Root (mm) [1, 9]: 29.8 ± 9.61 mm
Hypocotyl Percent (%) [1, 10]: 101%
Root Percent (%) [1, 10]: 79.5%
Hypocotyl (mm) [1, 11]: 26.0 ± 10.3 mm
Root (mm) [1, 11]: 38.3 ± 9.15 mm
Hypocotyl Percent (%) [1, 12]: 98.1%
Root Percent (%) [1, 12]: 102%
Hypocotyl Percent (%) [1, 13]: 100%
Root Percent (%) [1, 13]: 100%
Hypocotyl (mm) [1, 14]: 26.5 ± 7.51 mm
Root (mm) [1, 14]: 37.5 ± 13.2 mm
duration of induction sufficient for a full state of ethylene insensitivity ([1]; tomato p1002 line, 10 μM inducer, 20 μM ACC): Six days was sufficient to induce a full state of ethylene insensitivity
reversal after removal of inducer ([1]; tomato p1002 line, induced for 2 or 4 days then removed from inducer, compared to non-induced control): showed return to a state of ethylene sensitivity
Shoot Length Avg (cm) ([2]; tobacco plant 185-1 (VGE)): 2.8 cm
Shoot Length Avg (cm) ([2]; tobacco plant 185-8 (VGE)): 4.6 cm
Shoot Length (cm) ([2]; tobacco plant 185-8 (VGE)): 5.5 cm and 5.0 cm and 4.0 cm and 4.4 cm and 4.3 cm
Shoot Length Avg (cm) ([2]; tobacco plant 185-11 (VGE)): 4.0 cm
Shoot Length (cm) ([2]; tobacco plant 185-11 (VGE)): 4.0 cm and 4.5 cm and 3.0 cm
Shoot Length Avg (cm) ([2]; tobacco plant 187-7 (GVE)): 3.0 cm
Shoot Length (cm) ([2]; tobacco plant 187-7 (GVE)): 3.0 cm
Shoot Length Avg (cm) ([2]; tobacco plant 187-13 (GVE)): 3.9 cm
Shoot Length (cm) ([2]; tobacco plant 187-13 (GVE)): 4.0 cm and 3.5 cm and 5.0 cm and 3.0 cm
Shoot Length Avg (cm) ([2]; tobacco plant 187-17 (GVE)): 4.3 cm
Shoot Length (cm) ([2]; tobacco plant 187-17 (GVE)): 5.6 cm and 3.5 cm
Shoot Length Avg (cm) ([2]; tobacco plant 187-21 (GVE)): 3.4 cm
Shoot Length (cm) ([2]; tobacco plant 187-21 (GVE)): 4.0 cm and 3.5 cm and 3.0 cm and 2.5 cm
ethylene insensitivity, based on increased shoot length compared to non-induced transgenic plants ([2]; transgenic tobacco with etr1-1 cassettes, presence of inducer, ethylene): demonstrated ethylene insensitivity
root length of most p1002 transformants versus wild-type or ein2 mutant seedlings ([3]; Arabidopsis, inducer in the presence of silver, 10 ppm ethylene): not significantly longer
effect on hypocotyls of p1002 transformants [3, 15]: No effect was observed
root length of p1002 transformants relative to wild-type seedlings [3, 15]: significantly longer
Roots (mm) Avg ([3]; Ein2-5 seedlings, 20 μM inducer + 5 μM AgNO3, 10 ppm ethylene, dark): 12.4 mm
Hypocotyls (mm) Avg [3, 16]: ~30 mm
Roots (mm) Avg [3, 16]: 19.9 mm
Roots (mm) Avg ([3]; WT seedlings, 20 μM inducer + 5 μM AgNO3, 10 ppm ethylene, dark): 13.9 mm
Hypocotyls (mm) Avg [3, 17]: 12 mm
Roots (mm) Avg [3, 17]: 3.92 mm
Roots (mm) Avg ([3]; p1002-1-4 seedlings, 20 μM inducer + 5 μM AgNO3, 10 ppm ethylene, dark): 11.8 mm
Hypocotyls (mm) Avg [3, 18]: 12.3 mm
Roots (mm) Avg [3, 18]: 5.8 mm
Roots (mm) Avg ([3]; p1002-3-4 seedlings, 20 μM inducer + 5 μM AgNO3, 10 ppm ethylene, dark): 17.4 mm
Hypocotyls (mm) Avg [3, 19]: 12.7 mm
Roots (mm) Avg [3, 19]: 6.7 mm
Roots (mm) Avg ([3]; p1002-11-3 seedlings, 20 μM inducer + 5 μM AgNO3, 10 ppm ethylene, dark): 11.7 mm
Hypocotyls (mm) Avg [3, 20]: 12.1 mm
Roots (mm) Avg [3, 20]: 5.6 mm
Roots (mm) Avg ([3]; p1002-23-2 seedlings, 20 μM inducer + 5 μM AgNO3, 10 ppm ethylene, dark): 10.5 mm
Hypocotyls (mm) Avg [3, 21]: 12.1 mm
Roots (mm) Avg [3, 21]: 6.04 mm
Roots (mm) Avg ([3]; p1002-24-4 seedlings, 20 μM inducer + 5 μM AgNO3, 10 ppm ethylene, dark): 13.1 mm
Hypocotyls (mm) Avg [3, 22]: 12.2 mm
Roots (mm) Avg [3, 22]: 4.96 mm
ethylene insensitivity, based on increased shoot length and/or altered root growth compared to non-induced transgenic plants ([3]; transgenic Arabidopsis with etr1-1 cassettes, 20 μM inducer, ethylene, dark, 4-8 days): demonstrated ethylene insensitivity
ethylene insensitivity, based on increased shoot length and/or altered root growth compared to non-induced transgenic plants [4]: demonstrated ethylene insensitivity
